Data as given in paper PMC5113665, “HF‐Free Boc Synthesis of Peptide Thioesters for Ligation and Cyclization” (Angewandte Chemie (International Ed. in English), 2016).
Non-standard residues stand in square brackets, D forms with d. Residues, ends and D or L forms follow the SMILES beside them. Phe(4-F) = N[C@@H](Cc1ccc(F)cc1)C(=O)O; d2Nal = N[C@H](Cc1ccc2ccccc2c1)C(=O)O; dNle = CCCC[C@@H](N)C(=O)O

Biological target: T1, KRAS-GTPγS (Homo sapiens, UniProt P01116)
T1 construct: proteins (amino acids 1-185) were; GST (N, cleaved yes); made in house; host or cells: Escherichia coli BL21
Test: Microscale thermophoresis binding to labeled KRAS-GTPγS
Conditions: 25 °C, NT-647 labelled protein, GTPγS-loaded, average of three measurements, read-out: affinity for labeled KRAS-GTPγS
Description: Cyclization in acetonitrile in the presence of an aqueous imidazole solution gave good results (Figure S23, SI). […] The binding was characterized by microscale thermophoresis studies (Figure 4 D).
VI. Biological analysis of Cyclorasin 9A5
Protein Expression and Purification material and methods:
Human wt-K-Ras and oncogenic K-Ras_G12V proteins (amino acids 1-185) were cloned in pGEX-6P-1 vector that encodes a glutathione S-transferase (GST) tag at the N-terminal of the expressed protein. The constructs were transformed in Escherichia coli BL21 cells – the cells were grown in Luria Broth (LB) media in the presence of 0.1 mg mL-1 ampicillin at 37 °C to an OD 700 then induced by the addition of 0.1 mM IPTG. The bacterial culture was then incubated overnight at 18 °C and harvested the second day by centrifugation. […]
Microscale thermophoresis (MST) measurements were performed using a NanoTemper Monolith™ NT.115 instrument (NanoTemper Technologies GmbH, München, Germany). […] Labeling levels (generally in the range 0.3-0.4 dye molecules per protein) were determined using calculated extinction coefficients and e647 = 250,000 M-1cm-1 for the dye concentration. […]
GTPγS (B) and K-Ras-G12V_ GDP (D). The Kd values for each interaction were calculated as an average of three measurements. […]

T1 sequence (P01116 1-185 isoform P01116-2): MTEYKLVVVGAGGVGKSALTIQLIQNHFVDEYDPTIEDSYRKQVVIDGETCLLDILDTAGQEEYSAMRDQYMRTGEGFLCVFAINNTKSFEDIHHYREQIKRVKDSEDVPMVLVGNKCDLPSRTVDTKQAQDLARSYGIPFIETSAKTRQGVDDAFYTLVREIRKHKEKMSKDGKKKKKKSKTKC

- Kd: 600 nM
Compound: CCCC[C@H]1NC(=O)[C@H](Cc2ccc(F)cc2)NC(=O)[C@H](CCCNC(=N)N)NC(=O)[C@@H](Cc2ccc3ccccc3c2)NC(=O)[C@H](CCCNC(=N)N)NC(=O)[C@H](CCCNC(=N)N)NC(=O)[C@H](CCCNC(=N)N)NC(=O)[C@@H](C)NC(=O)[C@H]([C@@H](C)O)NC(=O)[C@H](Cc2c[nH]c3ccccc23)NC(=O)[C@H](CCC(N)=O)NC1=O [cyclorasin 9A5] (cyclo(WT[dA]RRR[d2Nal]R[Phe(4-F)][dNle]Q))
